Experimental findings from ChEMBL document CHEMBL1201862, “PubChem BioAssay data set” (2004) are described below.

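Compound exposure: 48 hours, 5 concentrations, 96-well plates. At the GI50, growth is halved.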 The source made the active and inactive calls. Rule as the data show it: active = GI50 up to about 1.1 µM and inactive = higher. Bounds are passed on as bounds.

Some test systems named below: U-251; RPMI-8226; DMS-273; HL-60; HCC 2998; IGROV-1; HCT-15; K562; OVCAR-8; ACHN; SNB-19; SF-268; HT-29; SK-MEL-28; RXF 393; M19-MEL; TK-10; MCF7; NCI/ADR-RES.
Common to all, as to experiment: NCI-60 cell line screen, 48 h

As to `Clc1ccccc1C(n1ncc2ccccc21)n1ncc2ccccc21`, the GI50 with U-251 was 35.8 µM (inactive); in the test on RPMI-8226 it was 18.2 µM (inactive); in the test on DMS-273, 45.2 µM (inactive); with HL-60, 18.6 µM (inactive); with HCC 2998 it was 31.5 µM (inactive); in the test with IGROV-1, > 10 µM (inactive). The GI50 was 38.3 µM with HCT-15; 28.4 µM (inactive) in the test with K562; > 100 µM (inactive) in the test on OVCAR-8; 56.5 µM (inactive) in the test with ACHN; 57.5 µM (inactive) in the test with SNB-19; 99.3 µM (inactive) in the test with SF-268. Besides, the GI50 in the test with HT-29 was 35.9 µM (inactive); in the test on SK-MEL-28, 53.2 µM (inactive); in the test with RXF 393, 28.3 µM (inactive); with M19-MEL it was 23.1 µM (inactive); with TK-10, 99.8 µM (inactive).
As to `Cc1c2ccncc2c(C)c2c1[nH]c1ccccc12` [ELLIPTECINE], the GI50 in the test with U-251 was 0.771 µM (active); in the test with MCF7, 0.571 µM (active); in the test with RPMI-8226, 0.617 µM (active); in the test on DMS-273 it was 0.378 µM (active); in the test with HL-60, 0.883 µM (active); in the test on NCI/ADR-RES it was 0.659 µM (active). The GI50 was 2.68 µM (inactive) in the test on HCC 2998; 0.729 µM (active) in the test with IGROV-1; 0.402 µM in the test with HCT-15; 0.47 µM (active) in the test on K562; 0.406 µM (active) in the test with OVCAR-8; 0.826 µM (active) with SNB-19. The GI50 is 0.698 µM (active) in the test on SF-268; 0.863 µM (active) in the test with HT-29; 1.5 µM (inactive) with SK-MEL-28; 0.288 µM (active) in the test on RXF 393; 0.857 µM (active) with M19-MEL.
On to `CC(C)CCCC(C)[C@H]1CCC(C2C[C@@H](O)[C@@H]3CC(O)[C@@H](O)C[C@]3(CO)C2=O)[C@]1(C)CCO` (stereo not given in full), for which the GI50 in the test with U-251 was 19.4 µM (inactive); in the test on MCF7, 14.2 µM (inactive); in the test with RPMI-8226, 27.1 µM (inactive); in the test on DMS-273, 32.3 µM (inactive); in the test on HL-60, 16.1 µM (inactive); with NCI/ADR-RES, 37.6 µM (inactive). For the same compound, the GI50 is 21.2 µM (inactive) in the test on HCC 2998; 23.3 µM (inactive) with IGROV-1; 28.8 µM in the test on HCT-15; 24.4 µM (inactive) in the test on K562; > 50.1 µM (inactive) in the test with OVCAR-8; 28.4 µM (inactive) in the test with SNB-19. For the same compound, the GI50 with SF-268 is 25 µM (inactive); in the test on HT-29, 19.5 µM (inactive); in the test with SK-MEL-28, 21.8 µM (inactive); in the test with RXF 393 it was 24.9 µM (inactive); in the test on M19-MEL, 21 µM (inactive).
On to `CC(C)c1oc(=O)cc2c1C(O)C1OC(=O)C3(C)C(O)C4OC4C2(C)C13` (stereo not given) [NAGILACTONE], for which the GI50 was 1.58 µM (inactive) in the test on U-251; 0.728 µM (active) in the test on MCF7; 1.1 µM (active) in the test with RPMI-8226; 0.966 µM (active) in the test with DMS-273; 0.478 µM (active) with HL-60; 12.9 µM (inactive) in the test with NCI/ADR-RES. For the same compound, the GI50 was 1.86 µM (inactive) in the test on HCC 2998; 2.75 µM (inactive) in the test on IGROV-1; 2.07 µM in the test with HCT-15; 1.01 µM (active) in the test on K562; 1.75 µM (inactive) with OVCAR-8; 0.573 µM (active) in the test with SNB-19. Besides, the GI50 was 4.09 µM (inactive) in the test on SF-268; 1.69 µM (inactive) with HT-29; 1.37 µM (inactive) with SK-MEL-28; 1.62 µM (inactive) in the test with RXF 393; 1.26 µM (inactive) with M19-MEL.
For the compound `O=C(CC1Sc2ccccc2NC1=O)Nc1ccc(Cl)cc1` (stereo not given), the GI50 was > 100 µM (inactive) in the test with U-251; > 100 µM (inactive) in the test with RPMI-8226; 83.4 µM (inactive) in the test on DMS-273; > 100 µM (inactive) with HL-60; 72.1 µM (inactive) with HCC 2998; 86.3 µM (inactive) in the test on IGROV-1. The GI50 is 75.9 µM in the test with HCT-15; > 100 µM (inactive) in the test on K562; 37.9 µM (inactive) in the test on OVCAR-8; 26.5 µM (inactive) with ACHN; > 100 µM (inactive) in the test on SNB-19; 38.5 µM (inactive) with SF-268. Further, the GI50 in the test with HT-29 was > 100 µM (inactive); in the test on SK-MEL-28, > 100 µM (inactive); in the test on RXF 393 it was 31.1 µM (inactive); in the test with M19-MEL, > 100 µM (inactive); in the test with TK-10, > 100 µM (inactive).
